According to patent US20230293535A1, “ERBB/BTK INHIBITORS” (Dizal (Jiangsu) Pharmaceutical Co., Ltd., priority 2018, published 2023):

Legend:
Type in all cases: cell-based
[1] = system: OCI-LY-10 cells; assay: BTK (wt) cell proliferation, OCI-LY-10 (CellTiter-Glo, 72 h); conditions: Homo sapiens, OCI-Ly10, 72 h, OCI-LY-10 cells, 72 h, CellTiter-Glo; read-out: BTK WT OCI-LY-10 GI50;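 note: viable cells quantified via cellular ATP luminescence, proliferation given as percent of DMSO control after subtracting a duplicate plate read at time of dosing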
[2] = target: T1, human EGFR exon 20 V769_D770insASV (Homo sapiens, UniProt P00533, INS769ASV); assay: EGFR Exon20 ASV insertion cellular phosphorylation inhibition (MSD pEGFR Y1068/total EGFR); conditions: Ba/F3 EGFR ASV ins cells, 4 h compound, p-EGFR(Y1068)/total EGFR;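 note: electrochemiluminescent readout on an MSD SECTOR Imager, IL3-independent transduced cells in medium with 1% FBS, compound concentration series at 37 °C and 5% CO2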
T1 construct: expressed in transfected cells; host or cells: Ba/F3 (DSMZ ACC-300), lentiviral transduction, puromycin selection, IL3 depletion

[3] = system: Her2 exon 20 insertion YVMA transduced NIH-3T3 cell line; assay: Cell proliferation, Her2 YVMAins NIH-3T3 (CellTiter-Glo, 72 h); conditions: Mus musculus, NIH3T3, 72 h, Her2 YVMAins cells, 72 h proliferation; read-out: Her2 Exon 20 YVMA insertion GI50;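 note: viable cells quantified by ATP luminescence, growth over a day-zero baseline plate expressed as percent of DMSO control growth, compound dilution series in 10% FBS medium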
[4] = target: T2, human EGFR exon 20 H773_V774insNPH (Homo sapiens, UniProt P00533, INS773NPH); assay: EGFR Exon20 NPH insertion cellular phosphorylation inhibition (MSD pEGFR Y1068/total EGFR); conditions: Ba/F3 EGFR NPH ins cells, 4 h compound, p-EGFR(Y1068)/total EGFR;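 note: IL3-independent Ba/F3 cells with constitutively phosphorylated EGFR, compound exposure at 37 °C under 5% CO2, electrochemiluminescent MSD measurement of the p-EGFR to total EGFR ratio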
T2 construct: host or cells: Ba/F3

[5] = target: T3, EGFR L858R&T790M (Homo sapiens, UniProt P00533, L858R/T790M); assay: EGFR L858R and T790M cellular phosphorylation inhibition in NCI-H1975 (MSD); conditions: NCI-H1975 cells, 4 h compound, p-EGFR(Y1068)/total EGFR; read-out: EGFR L858R and T790M mutation IC50;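 note: phosphorylated and total EGFR detected by electrochemiluminescence, cells exposed to compound in medium containing 1% FBS at 37 °C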
T3 construct: host or cells: NCI-H1975
Procedure: One day before the test, WT or mutant cells were seeded in 96 well plates at appropriate concentrations with corresponding growth media supplemented with 1% FBS, and incubated overnight. The next day, tested compounds at a series of concentrations were added into each individual well of the plates, and the plates were incubated for 4 h at 37° C. with 5% CO2.
The EGFR (Y1068) phosphorylation level (activity) of cells in each well were then measured with MSD kit named “MULTI-SPOT®96 4-Spot HB Prototype EGFR Triplex [sequence]: pEGFR(Tyr1068),pEGFR(Tyr1173), Total EGFR” according to the manufacturer’s instruction (MESO SCALE DISCOVERY, Cat# N45ZB-1). The assay is an electrochemiluminescent method for determining both phosphorylated and total EGFR of cells with an MSD SECTOR® Imager and the ratio of p-EGFR/total EGFR can be generated by the machine. The Her2 (Y1248) phosphorylation level (activity) of cells in each well were measured with MSD Kit named “Phospho-ErbB2 (Tyr1248) Assay Whole Cell Lysate Kit” according to the manufacturer’s instruction (MESO SCALE DISCOVERY, Cat# K151CLD-3). The assay is an electrochemiluminescent method (MESO SCALE DISCOVERY) for determining both phosphorylated and total Her2 of cells with an MSD SECTOR® Imager and then the ratio of p-Her2/total Her2 can be generated by the machine.

[6] = system: Ba/F3 EGFR ASV ins cells; assay: Cell proliferation, Ba/F3 EGFR ASV ins (CellTiter-Glo, 72 h); conditions: Ba/F3 EGFR, 72 h, Ba/F3 EGFR ASV ins, 72 h proliferation; read-out: EGFR Exon20 ASV insertion GI50;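 note: IL3-independent Ba/F3 cells transduced with EGFR V769_D770insASV, cellular ATP luminescence after compound exposure, growth relative to DMSO control with the day-0 baseline reading subtracted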
[7] = target: T4, human Her2 exon 20 insertion mutation YVMA (Homo sapiens, UniProt P04626, INS775YVMA); assay: Her2 Exon 20 YVMA insertion cellular phosphorylation inhibition (MSD p-Her2 Y1248/total Her2); conditions: Her2 YVMAins cells, 4 h compound;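 note: lentivirally transduced NIH-3T3 cells in 1% FBS medium, electrochemiluminescent MSD read-out, graded compound concentrations at 37 °C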
T4 construct: expressed in transfected cells; host or cells: NIH-3T3, lentiviral transduction, puromycin selection

[8] = system: WT EGFR cell line A-431; assay: Cell proliferation, WT EGFR A431 (CellTiter-Glo, 72 h); conditions: Homo sapiens, A-431, 72 h, A431, 72 h proliferation; read-out: EGFR WT A431 GI50;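 note: proliferation from a luminescent ATP viability signal, expressed as 100 × (treated minus time-zero plate) over (DMSO control minus time-zero plate), cells grown with 10% FBS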
[9] = system: Ri-1 cells; assay: BTK (wt) cell proliferation, Ri-1 (CellTiter-Glo, 72 h); conditions: Ri-1, 72 h, Ri-1 cells, 72 h, CellTiter-Glo; read-out: BTK WT Ri-1 GI50;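 note: viable cells quantified as cellular ATP luminescence, proliferation normalized to a time-zero plate and the DMSO control, compounds tested across a dilution series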
[10] = system: DB cells; assay: BTK (wt) cell proliferation, DB (CellTiter-Glo, 72 h); conditions: Homo sapiens, DB, DB cells, CellTiter-Glo, read-out: Non-BCR activated DB GI50;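 note: DB cells in 384-well plates given a dilution series of compound, viable cells read by ATP luminescence, growth expressed versus DMSO control after subtracting a time-zero plate reading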
Procedure: OCI-LY-10 at 3,750 cells/well, TMD-8 and Ri-1 at 2,000 cells/well, and DB at 1,250 cells/well, respectively, were sorted into 384-well plates in RPMI1640 medium with 10% FBS. After overnight incubation, all cells were incubated with compound at a series of concentrations. Meanwhile, a duplicated plate of each cell line was prepared for measuring G0 value. The dosed plates were further incubated for 72 hours and the number of viable cells was measured by CellTiter-Glo® Luminescent Cell Viability Assay (Promega), a luminescent method for determining the number of viable cells through measurement of cellular ATP concentration using Envision plate reader (PerkinElmer). The percentage of proliferation was calculated as: % Proliferation = 100 × (G3 value of sample well - G0 value)/(G3 value of DMSO control - G0 value).

[11] = system: Ba/F3 EGFR NPH ins cells; assay: Cell proliferation, Ba/F3 EGFR NPH ins (CellTiter-Glo, 72 h); conditions: Ba/F3 EGFR, 72 h, Ba/F3 EGFR NPH ins, 72 h proliferation; read-out: EGFR Exon20 NPH insertion GI50;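 note: IL3-independent cells carrying constitutively phosphorylated EGFR, compound dilution series, viable cells quantified by ATP luminescence, growth relative to DMSO wells after subtracting pre-dosing (day 0) baseline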
[12] = system: NCI-H1975 EGFR L858R/T790M cells; assay: Cell proliferation, NCI-H1975 EGFR L858R/T790M (CellTiter-Glo, 72 h); conditions: Homo sapiens, NCI-H1975, 72 h, NCI-H1975, 72 h proliferation; read-out: EGFR L858R and T790M mutation GI50;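 note: viable cells quantified by luciferase-based ATP luminescence, proliferation expressed relative to DMSO-treated wells (100%) after subtracting a parallel plate read at the time of dosing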
[13] = target: T5, WT EGFR (Homo sapiens, UniProt P00533); assay: WT EGFR cellular phosphorylation inhibition in A-431 (hEGF stimulated, MSD); conditions: A431 cells, 4 h compound, then 100 ng/ml hEGF 10 min;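 note: electrochemiluminescence read-out of EGFR Tyr1068 phosphorylation expressed as ratio to total EGFR, cells kept in medium with 1% FBS, compounds tested as a concentration series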
T5 construct: host or cells: A-431

[14] = system: TMD-8 cells; assay: BTK (wt) cell proliferation, TMD-8 (CellTiter-Glo, 72 h); conditions: Homo sapiens, TMD8, 72 h, TMD-8 cells, 72 h, CellTiter-Glo; read-out: BTK WT TMD-8 GI50;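 note: viable cells quantified by ATP-based luminescence, proliferation expressed as percent of DMSO control after subtracting a time-zero baseline plate read at dosing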

T4 sequence (P04626 with tags, fused parts or gaps INS775YVMA): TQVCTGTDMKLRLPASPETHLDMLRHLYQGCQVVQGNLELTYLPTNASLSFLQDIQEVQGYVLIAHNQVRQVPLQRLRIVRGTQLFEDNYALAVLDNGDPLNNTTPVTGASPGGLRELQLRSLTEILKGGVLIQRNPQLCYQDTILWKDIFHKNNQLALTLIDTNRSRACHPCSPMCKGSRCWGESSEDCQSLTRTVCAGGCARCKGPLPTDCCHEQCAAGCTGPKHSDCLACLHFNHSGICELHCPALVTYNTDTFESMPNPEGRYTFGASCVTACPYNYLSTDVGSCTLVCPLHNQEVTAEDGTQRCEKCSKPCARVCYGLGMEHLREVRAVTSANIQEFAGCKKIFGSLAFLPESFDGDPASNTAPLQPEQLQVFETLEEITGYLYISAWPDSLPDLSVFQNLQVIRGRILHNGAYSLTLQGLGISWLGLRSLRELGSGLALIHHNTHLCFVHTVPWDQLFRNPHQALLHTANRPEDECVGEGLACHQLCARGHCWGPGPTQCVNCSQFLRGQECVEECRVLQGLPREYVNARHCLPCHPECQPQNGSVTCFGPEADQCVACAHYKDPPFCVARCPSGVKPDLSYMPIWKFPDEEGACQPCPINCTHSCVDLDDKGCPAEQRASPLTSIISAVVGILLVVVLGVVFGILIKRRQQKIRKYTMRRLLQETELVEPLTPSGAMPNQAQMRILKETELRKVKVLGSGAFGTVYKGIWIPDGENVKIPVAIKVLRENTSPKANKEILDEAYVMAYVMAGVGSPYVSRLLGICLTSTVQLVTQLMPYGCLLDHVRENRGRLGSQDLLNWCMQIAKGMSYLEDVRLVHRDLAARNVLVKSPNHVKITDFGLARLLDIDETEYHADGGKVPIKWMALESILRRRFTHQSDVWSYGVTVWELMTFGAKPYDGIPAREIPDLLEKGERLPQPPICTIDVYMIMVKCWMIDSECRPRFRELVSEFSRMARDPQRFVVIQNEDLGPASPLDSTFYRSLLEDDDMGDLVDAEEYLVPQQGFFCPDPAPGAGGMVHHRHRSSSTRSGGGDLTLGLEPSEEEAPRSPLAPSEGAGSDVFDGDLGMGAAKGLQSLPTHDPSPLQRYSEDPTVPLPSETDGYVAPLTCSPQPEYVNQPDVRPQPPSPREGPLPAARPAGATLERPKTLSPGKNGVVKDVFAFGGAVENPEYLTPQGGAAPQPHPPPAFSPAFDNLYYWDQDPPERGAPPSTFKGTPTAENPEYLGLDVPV
T2 sequence (P00533 with tags, fused parts or gaps INS773NPH): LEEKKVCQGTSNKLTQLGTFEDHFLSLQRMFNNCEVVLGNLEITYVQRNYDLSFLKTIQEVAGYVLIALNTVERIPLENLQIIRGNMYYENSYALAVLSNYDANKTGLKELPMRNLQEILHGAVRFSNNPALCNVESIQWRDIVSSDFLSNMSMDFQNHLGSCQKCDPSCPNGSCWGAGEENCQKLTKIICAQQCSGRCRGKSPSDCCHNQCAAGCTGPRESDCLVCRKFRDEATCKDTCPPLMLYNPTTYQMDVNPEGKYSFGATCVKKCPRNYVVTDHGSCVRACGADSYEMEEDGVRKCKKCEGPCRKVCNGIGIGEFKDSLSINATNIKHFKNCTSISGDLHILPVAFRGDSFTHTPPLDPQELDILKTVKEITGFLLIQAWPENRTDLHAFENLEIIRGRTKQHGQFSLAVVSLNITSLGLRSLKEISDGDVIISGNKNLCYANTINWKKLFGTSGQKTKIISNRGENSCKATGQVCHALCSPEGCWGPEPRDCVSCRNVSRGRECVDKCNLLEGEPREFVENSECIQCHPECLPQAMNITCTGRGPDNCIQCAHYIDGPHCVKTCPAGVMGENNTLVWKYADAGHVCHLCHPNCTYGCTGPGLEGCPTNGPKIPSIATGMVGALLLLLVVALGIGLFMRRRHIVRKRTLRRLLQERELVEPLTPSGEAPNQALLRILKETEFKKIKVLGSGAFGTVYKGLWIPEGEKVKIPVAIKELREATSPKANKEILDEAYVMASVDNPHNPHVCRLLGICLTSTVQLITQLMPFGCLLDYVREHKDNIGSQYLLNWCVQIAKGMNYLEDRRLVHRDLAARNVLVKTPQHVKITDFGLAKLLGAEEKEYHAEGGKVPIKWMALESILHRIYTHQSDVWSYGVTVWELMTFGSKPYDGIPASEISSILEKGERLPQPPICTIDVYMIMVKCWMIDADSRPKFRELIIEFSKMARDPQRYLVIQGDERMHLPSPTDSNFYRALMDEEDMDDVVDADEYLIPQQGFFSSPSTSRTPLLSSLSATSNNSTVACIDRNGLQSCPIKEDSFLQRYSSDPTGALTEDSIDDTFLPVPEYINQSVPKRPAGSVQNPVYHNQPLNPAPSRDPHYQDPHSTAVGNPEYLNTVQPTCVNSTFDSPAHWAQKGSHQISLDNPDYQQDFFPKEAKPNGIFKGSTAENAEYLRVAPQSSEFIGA
T5 sequence (P00533 25-1210): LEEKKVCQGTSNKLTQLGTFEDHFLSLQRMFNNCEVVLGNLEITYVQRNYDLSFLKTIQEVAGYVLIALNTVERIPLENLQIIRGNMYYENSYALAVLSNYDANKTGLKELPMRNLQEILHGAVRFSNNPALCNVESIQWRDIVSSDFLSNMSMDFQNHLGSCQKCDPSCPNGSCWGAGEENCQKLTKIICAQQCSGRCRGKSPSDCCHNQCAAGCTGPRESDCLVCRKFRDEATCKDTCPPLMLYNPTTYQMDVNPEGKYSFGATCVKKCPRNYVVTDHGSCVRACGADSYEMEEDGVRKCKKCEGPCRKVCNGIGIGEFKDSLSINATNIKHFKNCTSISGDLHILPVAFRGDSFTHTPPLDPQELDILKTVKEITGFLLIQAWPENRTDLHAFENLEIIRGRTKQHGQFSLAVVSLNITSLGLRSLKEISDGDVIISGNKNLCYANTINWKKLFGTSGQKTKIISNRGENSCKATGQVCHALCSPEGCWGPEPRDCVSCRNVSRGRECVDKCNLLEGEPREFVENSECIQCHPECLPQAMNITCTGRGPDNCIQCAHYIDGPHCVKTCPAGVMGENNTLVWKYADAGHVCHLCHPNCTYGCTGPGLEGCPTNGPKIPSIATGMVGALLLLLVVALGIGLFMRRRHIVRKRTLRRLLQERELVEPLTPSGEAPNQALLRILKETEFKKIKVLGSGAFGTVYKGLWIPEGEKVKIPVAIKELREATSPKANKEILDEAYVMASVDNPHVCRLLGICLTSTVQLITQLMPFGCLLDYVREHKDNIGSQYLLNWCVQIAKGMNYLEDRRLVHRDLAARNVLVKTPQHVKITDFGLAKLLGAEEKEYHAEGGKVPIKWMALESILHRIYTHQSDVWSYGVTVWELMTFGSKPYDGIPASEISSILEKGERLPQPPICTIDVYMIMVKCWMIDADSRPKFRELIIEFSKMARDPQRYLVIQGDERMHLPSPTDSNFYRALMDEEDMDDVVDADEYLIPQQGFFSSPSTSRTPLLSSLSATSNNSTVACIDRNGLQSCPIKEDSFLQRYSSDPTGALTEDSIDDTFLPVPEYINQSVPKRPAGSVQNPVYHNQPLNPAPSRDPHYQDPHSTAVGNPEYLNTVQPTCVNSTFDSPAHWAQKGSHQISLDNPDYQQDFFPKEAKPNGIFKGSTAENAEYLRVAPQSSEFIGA
T3 sequence (P00533 25-1210 T790M/L858R): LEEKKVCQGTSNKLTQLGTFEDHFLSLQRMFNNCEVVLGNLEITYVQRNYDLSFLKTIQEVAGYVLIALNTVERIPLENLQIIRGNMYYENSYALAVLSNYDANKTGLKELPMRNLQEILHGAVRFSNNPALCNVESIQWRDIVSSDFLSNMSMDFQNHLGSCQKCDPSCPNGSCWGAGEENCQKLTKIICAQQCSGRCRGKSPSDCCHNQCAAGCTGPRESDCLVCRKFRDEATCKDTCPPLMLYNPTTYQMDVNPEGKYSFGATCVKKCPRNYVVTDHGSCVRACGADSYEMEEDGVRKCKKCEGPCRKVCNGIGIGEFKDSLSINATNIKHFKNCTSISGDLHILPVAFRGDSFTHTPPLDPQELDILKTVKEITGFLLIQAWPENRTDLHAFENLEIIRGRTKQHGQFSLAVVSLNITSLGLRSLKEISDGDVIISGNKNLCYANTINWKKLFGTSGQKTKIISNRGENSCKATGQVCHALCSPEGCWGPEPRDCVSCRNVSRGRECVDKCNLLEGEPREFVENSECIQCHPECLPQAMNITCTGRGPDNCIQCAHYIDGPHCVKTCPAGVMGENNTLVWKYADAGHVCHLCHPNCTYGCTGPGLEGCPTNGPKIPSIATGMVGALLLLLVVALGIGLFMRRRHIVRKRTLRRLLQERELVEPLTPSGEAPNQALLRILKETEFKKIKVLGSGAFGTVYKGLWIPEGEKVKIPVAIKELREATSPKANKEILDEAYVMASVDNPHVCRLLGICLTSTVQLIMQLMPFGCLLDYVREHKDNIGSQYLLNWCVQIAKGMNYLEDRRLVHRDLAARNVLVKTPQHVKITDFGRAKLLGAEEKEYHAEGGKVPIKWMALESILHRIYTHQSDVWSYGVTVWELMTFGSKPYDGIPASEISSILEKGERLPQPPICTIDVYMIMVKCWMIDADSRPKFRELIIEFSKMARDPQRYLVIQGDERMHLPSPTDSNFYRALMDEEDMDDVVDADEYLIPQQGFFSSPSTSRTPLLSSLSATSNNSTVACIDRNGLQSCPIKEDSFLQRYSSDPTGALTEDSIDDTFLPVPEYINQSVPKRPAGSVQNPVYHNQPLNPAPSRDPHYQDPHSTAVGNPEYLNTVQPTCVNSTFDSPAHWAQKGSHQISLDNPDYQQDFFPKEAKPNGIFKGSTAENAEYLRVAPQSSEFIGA

Row | Compound | GI50 [1] | IC50 [2] | GI50 [3] | IC50 [4] | IC50 [5] | GI50 [6] | IC50 [7] | GI50 [8] | GI50 [9] | GI50 [10] | GI50 [11] | GI50 [12] | IC50 [13] | GI50 [14]
1 | C=CC(=O)Nc1cc(Nc2ncnc(Nc3cccnc3C(C)(C)O)n2)c(OC)cc1N(C)CCN(C)C [Compound 8, N-(2-((2-(dimethylamino)ethyl)(methyl)amino)-5-(4-(2-(2-hydroxypropan-2-yl)pyridin-3-ylamino)-1,3,5-triazin-2-ylamino)-4-methoxyphenyl)acrylamide] | 88 nM | 117 nM | 353 nM | 91.1 nM | 2.9 nM | 250 nM | 25.7 nM | 99.8 nM | > 3000 nM | > 3000 nM | 258 nM | 32.4 nM | 43.1 nM | 1780 nM
2 | C=CC(=O)Nc1cc(Nc2ncnc(Nc3cc(F)c(F)cc3C(C)(C)O)n2)c(OC)cc1N1CCOC[C@@H]1CN(C)C [Compound 35, (S)-N-(5-(4-(4,5-difluoro-2-(2-hydroxypropan-2-yl)phenylamino)-1,3,5-triazin-2-ylamino)-2-(3-((dimethylamino)methyl)morpholino)-4-methoxyphenyl) acrylamide] | 986 nM | 5.4 nM | 39.4 nM | 9.2 nM | 0.5 nM | 24.3 nM | 4.7 nM | 21.9 nM | 699 nM | > 3000 nM | 22.2 nM | 1.5 nM | 13.9 nM | 377 nM
3 | C=CC(=O)Nc1cc(Nc2ncnc(Nc3cc(Cl)c(F)cc3C(C)(C)O)n2)c(OC)cc1N(C)C[C@@H]1CCCN1C [Compound 44, (S)-N-(5-(4-(5-chloro-4-fluoro-2-(2-hydroxypropan-2-yl)phenylamino)-1,3,5-triazin-2-ylamino)-4-methoxy-2-(methyl((1-methylpyrrolidin-2-yl)methyl)amino)phenyl) acrylamide] | 6.75 nM | 12.5 nM | 74.6 nM | 6.8 nM | 0.5 nM | 29.8 nM | 8 nM | 14.8 nM | 10.4 nM | > 3000 nM | 39 nM | 3.6 nM | 30.9 nM | 4.32 nM
4 | C=CC(=O)Nc1cc(Nc2ncnc(Nc3cc(F)c(F)cc3C(C)(C)O)n2)c(OC)cc1N(C)CCN(C)C [Compound 4, N-(5-(4-(4,5-difluoro-2-(2-hydroxypropan-2-yl)phenylamino)-1,3,5-triazin-2-ylamino)-2-((2-(dimethylamino)ethyl)(methyl)amino)-4-methoxyphenyl)ac rylamide] | 8.9 nM | 6.1 nM | 31 nM | 8.2 nM | 0.4 nM | 20.7 nM | 5.5 nM | 15.7 nM | 61.4 nM | > 3000 nM | 32.2 nM | 6.9 nM | 11.1 nM | 77.1 nM
5 | C=CC(=O)Nc1cc(Nc2ncnc(Nc3cc(Cl)c(F)cc3C(C)(C)O)n2)c(OC)cc1N(C)CCN1CCCCC1 [Compound 26, N-(5-(4-(5-chloro-4-fluoro-2-(2-hydroxypropan-2-yl)phenylamino)-1,3,5-triazin-2-ylamino)-4-methoxy-2-(methyl(2-(piperidin-1-yl)ethyl)amino)phenyl)acrylamide] | 45.3 nM | 40.5 nM | 253 nM | 43.5 nM | 1.3 nM | 99.5 nM | 9.5 nM | 57.8 nM | 50.5 nM | > 3000 nM | 123 nM | 32.4 nM | 103 nM | 12.6 nM
